# Data: patent US7176244B1, “Use of 2-nitropropanol, 2-nitroethane, and 2-nitroethanol for control of microbial pathogens” (The United States of America as represented by the …, priority 2002, dated 2007)
# Where “and” joins values, the source holds several entries; their conditions need not be identical. Identical values can stand only once. Like-named read-outs stand apart in the source and are kept apart here.
# Tests used:
# Campylobacter jejuni = assay: Bactericidal effect in Bolton Broth at different pH; type: cell-based; settings: sodium salt used; 0, 10, 20 mM in Bolton Broth; pH 5.6, 7.2, 8.2
# Method: The bactericidal effect of 2-nitroethane against Campylobacter jejuni was examined in vitro following substantially the same assay as described in the first experiment of Example 1 except Bolton Broth was utilized rather than TSB. In this experiment nitroethane was added to the Bolton Broth medium in amounts to give 0, 10, and 20 mM final concentrations, and trials were conducted in the media at different pH (5.6, 7.2, and 8.2).
# Because 2-nitroethane is somewhat volatile, the sodium salt of the compound was prepared and used in this experiment. The salt was prepared using the process described by Majak et al. (1986, J. Anim. Sci., 62:1072–1080, the contents of which are incorporated by reference herein).
# S. Typhimurium [1] = assay: Specific growth rate in tryptic soy broth (A600); type: cell-based, Salmonella Typhimurium
# Method: (§1) The bactericidal effect of 2-nitropropanol and nitroethanol were examined in vitro on several pathogenic bacteria including Salmonella Typhimurium, Escherichia coli O157:H7, Campylobacter jejuni, and Enterococcus faecalis. For an initial in vitro study 2-nitropropanol or nitroethanol were added to tryptic soy broth (TSB) medium in amounts to give 0, 2.5, 5, and 10 mM final concentration. Cultures were inoculated in TSB and incubated at 37° C. Specific growth rates (h^−1) were calculated by measuring optical density (A600) with spectrophotometer.
# E. coli O157:H7 = assay: Specific growth rate in tryptic soy broth (A600); type: cell-based, Escherichia coli O157:H7; settings: 2.5 mM and higher concentrations in TSB, 37° C.
# Method: as §1
# S. Typhimurium [2] = type: cell-based, Salmonella Typhimurium; settings: 10 mM
# Method: Another experiment was conducted to evaluate the bactericidal effect of 2-nitropropanol against S. Typhimurium in buffered rumen and fecal fluid containing viable populations of endogenous anaerobes. Briefly, ruminal contents and feces were retrieved and strained. Both collected fluids were transferred to laboratory and mixed with anoxic phosphate buffer (pH 6.8). Antibiotic-marked (25 μg novobiocin/ml and 20 μg/ml of nalidixic acid resistant) (NN)S. Typhimurium cultures were inoculated into these mixtures supplemented with 2-nitropropanol at various concentrations (0, 2.5, and 10 mM of final). Those inoculated tubes were incubated at 37° C. and populations were monitored at different sampling time (0, 3, 6, and 24 h) by direct plating onto brilliant green agar (BGA) containing NN.
# Listeria monocytogenes = assay: Bactericidal effect in Tryptic Soy Broth at different pH; type: cell-based; settings: pH 5.6, 7.2, 8.2, 37° C.
# Method: The bactericidal effect of 2-nitropropanol against Listeria monocytogenes was examined in vitro following the same assay as described in the first and second experiments of Example 1. Trials were conducted in the media at different pH (5.6, 7.2, and 8.2).
# S. Typhimurium [3] = assay: pH effect: populations (CFU/ml) in TSB adjusted to different pH, enumerated on TSA; type: cell-based, Salmonella Typhimurium; settings: 37° C.
# Method: In order to observe the pH effect on this 2-nitropropanol, S. Typhimurium was inoculated into TSB medium adjusted to different pH (5.6, 7.2, and 8.0) with 2-nitropropanol (0, 2.5, and 10 mM final concentration) and incubated at 37° C. Populations of S. Typhimurium were determined (CFU/ml) by enumerating on tryptic soy agar (TSA) at 3, 6, and 24 h. […] However, S. Typhimurium was totally inactivated (more than 5 log reductions) at 10 mM 2-nitropropanol regardless of pH (FIG. 2).
# Salmonella Typhimurium [4] = assay: Cecal populations in experimentally challenged broiler chicks, experiment 2; type: in vivo; settings: oral gavage
# Method: Significant (P<0.05) log reductions occurred in group administered 1×(13 mg/bird) dose for both 24 and 48 h duration compared to untreated control.
# E. faecalis = assay: Specific growth rate in tryptic soy broth (A600); type: cell-based, Enterococcus faecalis; settings: 10 mM in TSB, 37° C.
# Method: as §1
# Salmonella Typhimurium [5] = type: in vivo, broiler chicks; settings: oral gavage, 24 h, Experiment 1
# Method: The bactericidal effect of 2-nitropropanol on Salmonella typhimurium was determined in vivo. The in vivo study was conducted using 7-day-old chick experimentally infected with S. Typhimurium. In experiment 1, chicks were orally challenged with 10^6 cfu of NN-resistant strain of S. Typhimurium. Chicks were divided into four groups; control, 1 (13 mg 2-nitropropanol/bird), 5 (65 mg 2-nitropropanol/bird) and 10×(130 mg 2-nitropropanol/bird). Treatments were administered via oral gavage. After 24 h, cecal contents were aseptically removed and subjected to bacterial analysis.
# C. jejuni = assay: Bactericidal effect in Campylobacter enrichment broth, direct plating and enrichment; type: cell-based, Campylobacter jejuni; settings: 48 h, pH 5.6 and 7.0, 42° C.
# Method: The bactericidal effect against C. jejuni was also determined in vitro. Cultures were inoculated into Campylobacter enrichment broth containing 2-nitropropanol at 0, 5, 10, and 20 mM of final and incubated at 42° C.
smiles,measurement,setting,value
CC[N+](=O)[O-] [2-nitroethane],pH dependence of bactericidal effect against Campylobacter jejuni,Campylobacter jejuni,increased at alkaline pH
O=[N+]([O-])CCO [2-nitroethanol],growth of S. Typhimurium (specific growth rate),S. Typhimurium [1],largely prohibited
same,growth of E. coli O157:H7 (specific growth rate),E. coli O157:H7,largely prohibited
CC(CO)[N+](=O)[O-] (stereo not shown) [2-nitropropanol],reductions of Salmonella populations compared to controls,"S. Typhimurium [2]; fecal fluid in anoxic phosphate buffer pH 6.8, 37° C.",2–3 log
same,reductions of Salmonella populations compared to controls,"S. Typhimurium [2]; ruminal fluid in anoxic phosphate buffer pH 6.8, 37° C.",2–3 log
same,pH dependence of bactericidal effect against Listeria monocytogenes,Listeria monocytogenes,"enhanced in an acidic or alkaline environment, but is somewhat reduced at neutral pH"
same,reduction of S. Typhimurium cells,"S. Typhimurium [3]; 2.5 mM, pH 5.6, after 24 h",approximately 3 log
same,reduction of S. Typhimurium cells (totally inactivated),"S. Typhimurium [3]; 10 mM, regardless of pH (5.6, 7.2, 8.0)",more than 5 log
same,"Salmonella Typhimurium, Mean log CFU/g of cecal content (standard deviation)","Salmonella Typhimurium [4]; 0.5× = 6.5 mg per bird, 24 h",4.19 (2.53) A log CFU/g
same,"Salmonella Typhimurium, Mean log CFU/g of cecal content (standard deviation)","Salmonella Typhimurium [4]; 0.5× = 6.5 mg per bird, 48 h",3.84 (2.69) AB log CFU/g
same,"Salmonella Typhimurium, Mean log CFU/g of cecal content (standard deviation)","Salmonella Typhimurium [4]; 0.5× = 6.5 mg per bird, Combined 24 and 48 h",4.01 (2.59) A log CFU/g
same,"Salmonella Typhimurium, Mean log CFU/g of cecal content (standard deviation)","Salmonella Typhimurium [4]; 1× = 13 mg per bird, 24 h",2.58 (2.10) B log CFU/g
same,"Salmonella Typhimurium, Mean log CFU/g of cecal content (standard deviation)","Salmonella Typhimurium [4]; 1× = 13 mg per bird, 48 h",2.88 (2.78) B log CFU/g
same,"Salmonella Typhimurium, Mean log CFU/g of cecal content (standard deviation)","Salmonella Typhimurium [4]; 1× = 13 mg per bird, Combined 24 and 48 h",2.73±2.45 log CFU/g and 2.73 (2.45) B log CFU/g
same,growth of E. faecalis (specific growth rate),E. faecalis,markedly inhibited
same,Mean log CFU/g of cecal content (standard deviation),Salmonella Typhimurium [5]; 1× = 13 mg per bird,3.65±2.01 log CFU/g and 3.65 (2.01) B log CFU/g
same,Mean log CFU/g of cecal content (standard deviation),Salmonella Typhimurium [5]; 5× = 65 mg per bird,3.39±2.42 log CFU/g and 3.39 (2.42) B log CFU/g
same,Mean log CFU/g of cecal content (standard deviation),Salmonella Typhimurium [5]; 10× = 130 mg per bird,3.47 ± 1.55 log CFU/g and 3.46 (1.55) B log CFU/g
same,inactivation of C. jejuni cultures,C. jejuni; 10 mM,completely inactivated
same,inactivation of C. jejuni cultures,C. jejuni; 20 mM,completely inactivated
same,growth of S. Typhimurium (specific growth rate),"S. Typhimurium [1]; 2.5 mM and higher concentrations in TSB, 37° C.",largely prohibited
same,growth of E. coli O157:H7 (specific growth rate),E. coli O157:H7,largely prohibited
